The values below come from PubChem BioAssay AID493138 (Sanford-Burnham Center for Chemical Genomics, 2011).

The source made the active and inactive calls. How the calls were made is not given here.

By IC50 is commonly meant the point on the concentration scale where inhibition reaches its midpoint.

For this experiment, the target named is Alkaline phosphatase, placental type (Homo sapiens) (UniProt P05187). The experiment is described as follows: inhibitors of placental alkaline phosphatase – biochemical, human PLAP isozyme, selectivity assay for human IAP inhibitor project, SAR follow-up (AID 493138). The following applies: purified placental alkaline phosphatase, enzyme activity.
In the case of `CCN(CC)S(=O)(=O)c1ccc(-c2csc(=Nc3cccc4ccccc34)n2C)cc1`, the IC50 is > 100 µM (inactive). `O=[N+]([O-])c1ccccc1NC(=S)N/N=C/c1ccc(O)c(O)c1O`: the IC50 is > 100 µM (inactive). On to `CCOc1cc(C=N/N=C2/NC(=O)C(CC(=O)O)S2)ccc1OCc1ccccc1Cl` (stereo unspecified), for which the IC50 is > 100 µM (inactive). With `COc1cc(/C=N/N=C2\NC(=O)C(CC(=O)O)S2)cc(OC)c1OC` (stereo unspecified), the IC50 is > 100 µM (inactive). As to `S=C(NCCC(c1ccccc1)c1ccccc1)Nc1ccc(Cl)cc1Cl`, the IC50 is > 100 µM (inactive). `CCOc1cc(/C=N/N=C2\NC(=O)C(CC(=O)O)S2)ccc1O` (stereo unspecified): the IC50 was > 100 µM (inactive).

Take `Oc1ccc(-c2csc(Nc3ccc(F)cc3)n2)cc1O`: the IC50 is > 100 µM (inactive).

Consider `COC(=O)/C=C1/S/C(=N/N=Cc2ccc(N(C)C)cc2)NC1=O`, for which the IC50 is > 100 µM (inactive). Turning to `Cc1ccc(Nc2nc(-c3ccc(O)cc3O)cs2)cc1`, the IC50 was > 100 µM (inactive). Take `O=C(O)CC1S/C(=N/N=C/c2ccco2)NC1=O` (stereo unspecified): the IC50 was > 100 µM (inactive). As to `Cc1cccc(Nc2nc(-c3ccc(O)c(O)c3)cs2)c1`, the IC50 was > 100 µM (inactive). Take `Oc1ccc(-c2csc(Nc3ccccc3)n2)c(O)c1`: the IC50 is > 100 µM (inactive). Next, `Cc1cccc(Nc2nc(-c3ccc(O)c(C(N)=O)c3)cs2)c1`: > 100 µM (inactive). As for `COc1cc(C=NNC(=S)Nc2cccc(S(=O)(=O)N(C)C)c2)ccc1O`, the figure is > 100 µM (inactive); as for `COc1cc(C(=O)NNC(=S)Nc2ccc(S(N)(=O)=O)cc2)cc(OC)c1OC`, > 100 µM (inactive); as for `Cc1ccc2nc(NNC(=O)c3ccc4c(c3)OCCO4)sc2c1`, > 100 µM (inactive). In the case of `Cc1cccc(C)c1NC(=S)N/N=C/c1ccc(O)c(O)c1O`, the IC50 is > 100 µM (inactive).

Turning to `Cc1ccc(Nc2nc(-c3ccc(O)c(O)c3)cs2)cc1`, the IC50 is > 100 µM (inactive).

For the molecule `O=S(=O)(Nc1ncccn1)c1ccc(NC(=S)NCCC(c2ccccc2)c2ccccc2)cc1`, the IC50 is > 100 µM (inactive).

`NS(=O)(=O)c1ccc(Nc2nc(-c3ccc(O)c(O)c3)cs2)cc1`: the IC50 was 33.8 µM. As for `COc1cc([N+](=O)[O-])ccc1NC(=S)NCCC(c1ccccc1)c1ccccc1`, the figure is > 100 µM (inactive); as for `COC(=O)C/C=N/N=C1\NC(=O)/C(=C/C(=O)O)S1`, > 100 µM (inactive).

Regarding `COc1ccc(C=Nn2c(=S)n(C)c3ccccc32)cc1OC`, the IC50 was > 100 µM (inactive). Turning to `COC(=O)/C=C1/S/C(=N/NC(=O)c2ccccc2)NC1=O`, the IC50 was > 100 µM (inactive). As for `Cc1ccc(Nc2nc(-c3ccc(O)cc3O)cs2)cc1F`, the figure is > 100 µM (inactive); as for `O=S(=O)(c1ccc(NC(=S)N/N=C/c2ccc(O)c(O)c2)cc1)N1CCOCC1`, > 100 µM (inactive); as for `COC(=O)/C=C1\S/C(=N/N=C/c2ccc(Cl)cc2)NC1=O`, > 100 µM (inactive). On to `Cc1ccc(C)c(Nc2nc(-c3ccc(O)cc3O)cs2)c1`, for which the IC50 is > 100 µM (inactive). As for `Oc1ccc(-c2csc(Nc3cccc4ccccc34)n2)cc1O`, the figure is > 100 µM (inactive); as for `N#CCCn1cc(/C=N/N=C2/NC(=O)C(CC(=O)O)S2)c(-c2ccc(F)cc2)n1` (stereo unspecified), > 100 µM (inactive); as for `Cc1c(Cl)cccc1Nc1nc(-c2ccc(O)c(O)c2)cs1`, > 100 µM (inactive). For `COc1ccc(-c2csc(Nc3cccc4ccccc34)n2)cc1F`, the IC50 is > 100 µM (inactive).

Regarding `CC(=NNC(=S)Nc1ccccc1)c1ccc2c(c1)OCO2`, the IC50 was > 100 µM (inactive). Next, `NS(=O)(=O)c1ccc(Nc2nc(-c3ccc(O)cc3O)cs2)cc1`: > 100 µM (inactive). Turning to `O=[N+]([O-])c1ccccc1NC(=S)NN=Cc1ccc(O)c(O)c1`, the IC50 was 8.24 µM.

With `O=[N+]([O-])c1ccc(NC(=S)NCCC(c2ccccc2)c2ccccc2)cc1`, the IC50 is > 100 µM (inactive). For `Cn1c(=S)n(N=Cc2ccc3c(c2)OCO3)c2ccccc21`, the IC50 was > 100 µM (inactive).

In the case of `COc1ccc(-c2csc(Nc3cccc4ccccc34)n2)cc1`, the IC50 is > 100 µM (inactive). Turning to `COc1ccc(NC(=S)NCCC(c2ccccc2)c2ccccc2)cc1`, the IC50 was > 100 µM (inactive). As for `COc1ccc(C=NNC(=S)Nc2ccccc2[N+](=O)[O-])cc1O`, the figure is > 100 µM (inactive). On to `O=S(=O)(c1ccc(NC(=S)N/N=C/c2ccc(O)c(O)c2O)cc1)N1CCOCC1`, for which the IC50 is > 100 µM (inactive).

For `CN(C)S(=O)(=O)c1cccc(NC(=S)NN=Cc2ccc(O)c(O)c2O)c1`, the IC50 was > 100 µM (inactive).

For `CCOc1cc(C=NNC(=S)NC2CCCCC2)ccc1O`, the IC50 was > 100 µM (inactive). `COc1ccc(C(=O)NNC(=S)NC2CCCCC2)cc1OC`: the IC50 was > 100 µM (inactive).

Take `COc1cc(C=NN=C2SC(CC(=O)O)C(=O)N2c2ccc(O)cc2)ccc1O` (stereo unspecified): the IC50 is > 100 µM (inactive). In the case of `Cc1ccc(-c2ccc(/C=N/N=C3\NC(=O)C(CC(=O)O)S3)o2)c([N+](=O)[O-])c1` (stereo unspecified), the IC50 was > 100 µM (inactive). `COc1cccc(Nc2nc(-c3ccc(O)cc3)cs2)c1`: the IC50 was > 100 µM (inactive). Take `Oc1ccc(Nc2nc(-c3ccc(O)c(O)c3)cs2)cc1`: the IC50 was > 100 µM (inactive). Turning to `Cc1cccc2sc(NNC(=O)c3ccc4c(c3)OCCO4)nc12`, the IC50 was > 100 µM (inactive).

In the case of `COc1ccc(/C=N/N=C2\NC(=O)C(CC(=O)O)S2)c(OC)c1` (stereo unspecified), the IC50 was > 100 µM (inactive). As to `Cc1ccc2sc(NNC(=O)c3ccc4c(c3)OCCO4)nc2c1C`, the IC50 is > 100 µM (inactive). With `CCc1ccccc1Nc1nc(-c2ccc(O)c(O)c2)cs1`, the IC50 was > 100 µM (inactive).

As for `Cc1cc(=O)oc2cc(NC(=S)NCCC(c3ccccc3)c3ccccc3)ccc12`, the IC50 is > 100 µM (inactive). Next, `COc1ccc(Cl)cc1Nc1nc(-c2ccc(O)c(O)c2)cs1`: > 100 µM (inactive); `Cc1ccc(Cl)cc1Nc1nc(-c2ccc(O)c(O)c2)cs1`: > 100 µM (inactive). For the molecule `FC(F)(F)c1cccc(NC(=S)NCCC(c2ccccc2)c2ccccc2)c1`, the IC50 is > 100 µM (inactive). Regarding `Cc1ccc(Nc2nc(-c3ccc(O)cc3O)cs2)cc1C`, the IC50 was > 100 µM (inactive). Next, `COC(=O)/C=C1\SC(N=Nc2c(O)[nH]c3ccccc23)=NC1=O`: > 100 µM (inactive); `COc1ccc(C=NN=C2SC(CC(=O)O)C(=O)N2c2ccc(O)cc2)cc1` (stereo unspecified): > 100 µM (inactive); `Cc1cc(C)cc(Nc2nc(-c3ccc(O)cc3O)cs2)c1`: > 100 µM (inactive). In the case of `COC(=O)/C=C1/S/C(=N/NC(=O)c2ccccc2C)NC1=O`, the IC50 was > 100 µM (inactive). With `CC(C)(C)c1ccc(/C=N/N=C2\NC(=O)C(CC(=O)O)S2)cc1` (stereo unspecified), the IC50 is > 100 µM (inactive). With `COc1cc(/C=N/N=C2/SCC(=O)N2c2ccc(O)cc2)ccc1O`, the IC50 was > 100 µM (inactive).

`COc1cc(C=NNC(=S)Nc2cccc(C(=O)O)c2)ccc1O`: the IC50 was > 100 µM (inactive). With `COC(=O)/C=C1/S/C(=N/NC(=O)c2ccc(Cl)cc2Cl)NC1=O`, the IC50 is > 100 µM (inactive).

In the case of `COC(=O)/C=C1\S/C(=N/N=C/CC(=O)OC)NC1=O`, the IC50 was > 100 µM (inactive). With `COc1ccc(/C=N/N=C2/NC(=O)C(CC(=O)O)S2)cc1OC` (stereo unspecified), the IC50 is > 100 µM (inactive).

Turning to `COC(=O)/C=C1/S/C(=N/NC(=O)c2ccccc2OC)NC1=O`, the IC50 was > 100 µM (inactive). Regarding `Cc1ccc(Nc2nc(-c3ccc(O)c(O)c3)cs2)cc1F`, the IC50 is > 100 µM (inactive). For `Cc1cccc(NC(=S)NN=Cc2ccc3c(c2)OCO3)c1`, the IC50 is > 100 µM (inactive). For the molecule `COc1cc(C=NNC(=S)Nc2cccc(S(=O)(=O)N(C)C)c2)cc(OC)c1O`, the IC50 is > 100 µM (inactive).

For `Cc1cccc(NC(=S)NNC(=O)c2ccc3c(c2)OCO3)c1`, the IC50 is > 100 µM (inactive).

Turning to `COC(=O)/C=C1/S/C(=N/NC(=O)c2ccc(OC)cc2)NC1=O`, the IC50 is > 100 µM (inactive). As for `CCOc1ccc(Nc2nc(-c3ccc(O)c(O)c3)cs2)cc1`, the figure is > 100 µM (inactive); as for `Cc1ccc(Nc2nc(-c3ccc(O)c(C(N)=O)c3)cs2)cc1`, > 100 µM (inactive); as for `COc1cc([N+](=O)[O-])ccc1NC(=S)NNC(=O)c1ccc2c(c1)OCO2`, > 100 µM (inactive).
